# Results as given in patent EP4559896A1, “PH-SENSITIVE CATIONIC LIPID AND LIPID NANOPARTICLE” (National University Corporation Hokkaido University, priority 2022, dated 2024).
# Columns and labels:
# [1] = tested on: factor VII (F7); conditions: mouse liver; cited from earlier work
# [2] = average particle size and polydispersity index by dynamic light scattering; assay type: physicochemical; conditions: Fluc mRNA-loaded lipid nanoparticles, TOT/DSPC/chol/PEG-DMG=65/15/20/1.5 (mol%)
# Description: The average particle size (number average value), ζ-average particle size, and polydispersity index (PdI) of the lipid nanoparticles in PBS(-) (pH 7.4), and the zeta potential in 10 mM HEPES buffer (pH 7.4) were measured using an analyzer "Zetasizer Nano ZS ZEN3600" (manufactured by Malvern) utilizing dynamic light scattering.
# [3] = encapsulation rate of lipid nanoparticles (RiboGreen); assay type: physicochemical; conditions: Fluc mRNA-loaded lipid nanoparticles, TOT/DSPC/chol/PEG-DMG=65/15/20/1.5 (mol%)
# Description: The encapsulation rate of the lipid nanoparticles was determined by measuring the amount of encapsulated nucleic acid (mRNA) using RiboGreen (manufactured by Life Technologies), which is an RNAintercalator. The amount of mRNA was quantified based on a calibration curve prepared from a dilution series solution of mRNA at a known concentration.
# Specifically, 10 mM HEPES buffer (pH 7.4), 10 w/v% Triton X-100, and RiboGreen were mixed at 978.8 µL, 20 µL, and 1.25 µL per 10 wells, respectively, to obtain a Triton(+) buffer. A Triton(-) buffer was obtained in replacing Triton X-100 with 10 mM HEPES buffer (pH 7.4). 100 µL/well of the sample was added to a black 96-well plate for fluorescence measurement, and 100 µL/well of Triton(+) buffer or Triton(-) buffer was added. After the plate was gently shaken on a shaking incubator (SI-300, manufactured by AS ONE) (700 rpm, 30 seconds), the fluorescence intensity of each well was measured using a microplate reader (VARIOSKAN LUX, manufactured by Thermo Fisher Scientific) (wavelength Ex/Em=500 nm/525 nm), and the nucleic acid encapsulation rate (%) was calculated.
# [4] = tested on: BALB/c mice; assay: Fluc activity in tissues of mice administered with Fluc mRNA-loaded lipid nanoparticles; assay type: in vivo; conditions: for Fluc activity, predominant organ (liver or spleen): Example 34, TOT-5/DSPC/chol/PEG-DMG=65/X/35-X/1.5 (mol%), i.v. 0.01 mg/kg Fluc mRNA, 6 hours
# Description: Lipid nanoparticles were administered to mice by intravenous injection into the tail vein using a 27G needle. Unless otherwise specified, BALB/c mice (4 to 5 weeks old, female) were used.
# First, BALB/c mice (female, 4 weeks old) were intravenously injected with lipid nanoparticles encapsulating Fluc mRNA (Fluc mRNA-loaded lipid nanoparticles) at a dose of 0.01 mg mRNA/kg. Six hours after intravenous injection, the mice were euthanized, each tissue was collected, frozen in liquid nitrogen, and stored at -80°C. The tissues were homogenized in passive lysis buffer (manufactured by Promega) using a bead-type cell disruptor (Micro Smash MS-100R, manufactured by TOMY Seiko). Tissue debris was removed by centrifugation, and the supernatant was collected. Fluc activity in the supernatant was measured using the Luciferase Assay System (E1500, manufactured by Promega) according to the manufacturer's protocol. Luminescence was measured using a luminometer (Luminescencer-PSN, manufactured by ATTO). Protein concentration was determined using a commercially available assay kit (BCA Protein Assay Kit, manufactured by Pierce). Fluc activity was expressed as relative light units (RLU) per mg of protein.
# Specifically, first, each lipid nanoparticle was intravenously administered into the tail vein of mice in an amount of 0.2 mg/kg of Fluc mRNA, and 6 hours after administration of the lipid nanoparticles, about 50 mg each of the liver, spleen, lung, heart, brain, and muscle was collected and stored frozen. 500 µL of passive lysis buffer (manufactured by Promega) was added to each tube containing the collected organ. The liver was homogenized at 4000 rpm for 20 seconds twice, the spleen, kidney, lung, and heart were homogenized at 5000 rpm for 20 seconds twice, and the muscle was homogenized at 5000 rpm for 20 seconds four times; then, the homogenate was centrifuged at 13000 rpm at 4°C for 10 minutes, and the supernatant was collected as a sample for measurement. The liver and spleen were diluted 100 times with passive lysis buffer. 50 µL of a measurement sample (tissue supernatant) was mixed with 50 µL of luciferase assay buffer of the Luciferase Assay System (E1500, manufactured by Promega) previously added in a test tube by pipetting, and the amount of luminescence was measured with a luminometer. Protein concentration was determined using a commercially available assay kit (BCA Protein Assay Kit, manufactured by Pierce). Fluc activity was expressed as relative light units (RLU) per mg of protein.
# [5] = tested on: B cells, T cells, NK cells, dendritic cells, and neutrophils; assay: uptake of DiD-modified lipid nanoparticles by spleen cell types (DiD fluorescence intensity); assay type: in vivo, mice; conditions: Example 37, TOT-5/DSPC/chol/PEG-DMG=65/X/35-X/1.5 (mol%), 1 hour
# Description: First, DiD-modified Fluc mRNA-loaded lipid nanoparticles having a composition of TOT-5/DSPC/chol/PEG-DMG=65/X/35-X/1.5 (mol%) (X=3, 5, 10, 15, or 20) were prepared in the same manner as in Example 34, except that the red fluorescent substance DiD was incorporated at 0.5 mol% for DiD modification. The obtained DiD-modified Fluc mRNA-loaded lipid nanoparticles were intravenously administered into the tail vein of BALB/c mice so that the dose of Fluc mRNA was 0.2 mg/kg, the mice were euthanized 1 hour after administration, and the spleen was collected (N=3). As a control, the spleen was also collected from BALB/c mice not administered with lipid nanoparticles.
# The spleen cells were stained to distinguish B cells, T cells, NK cells, dendritic cells, and neutrophils. […] After removing the supernatant, the cells were resuspended with 5 mL of cold HBSS(-) buffer, the number of cells was counted, the suspensions were added to a 1.5 mL tube so that 3×10^6 cells were added, and centrifuged at 4°C and 400×g for 5 minutes. […] 6 µL of propidium iodide solution was added to the sample, each cell group was extracted by each surface antigen, and then DiD fluorescence intensity was measured.
# DiD-positive cells (cells emitting DiD fluorescence) are cells that have taken up DiD-modified Fluc mRNA-loaded lipid nanoparticles. […]
# [6] = Example 11, TOT-5/DOPE/chol/PEG-DMG=60/15/25/1, i.v. tail vein
# [7] = Example 14, TOT-5/DSPC/chol/PEG-DMG=65/15/20/1, i.v. tail vein
SMILES,ED50 in factor VII (F7) knockdown [1] [mg siRNA/kg],PdI [2],ζ-Average Particle Size [2] [nm],Encapsulation Rate [3] [%],"Fluc activity (RLU/mg protein) in the liver and spleen ([4]; Example 11, TOT-5/DOPE/chol/PEG-DMG=50 to 65/10 to 35/0 to 40/1 (mol%), all compositions, i.v. tail vein)","Fluc activity (RLU/mg protein) in the liver [4, 6]","Fluc activity (RLU/mg protein) in the spleen [4, 6]","Fluc activity (RLU/mg protein) in the liver and spleen ([4]; Example 13, TOT/DOPE/chol/PEG-DMG=60/15/25/1.0 (mol%), i.v. tail vein)","Fluc activity (RLU/mg protein) in the liver and spleen ([4]; Example 14, TOT-5/DSPC/chol/PEG-DMG=55 to 70/5 to 30/10 to 35/1 (mol%), all compositions, i.v. tail vein)","Fluc activity (RLU/mg protein) in the liver ([4]; Example 14, TOT-5/DSPC/chol/PEG-DMG=65/5/30/1, i.v. tail vein)","Fluc activity (RLU/mg protein) in the liver [4, 7]","Fluc activity (RLU/mg protein) in the spleen [4, 7]","luciferase activity in the spleen compared with control mice (CL4F6-containing lipid nanoparticles) ([4]; Example 33, TOT/DSPC/chol/PEG-DMG=65/15/20/1.5, control CL4F6/DSPC/chol/PEG-DMG=50/10/40/1.5 (mol%), i.v. tail vein)","Fluc activity, predominant organ (liver or spleen) ([4]; DSPC content 10 mol% or more)","Fluc activity, predominant organ (liver or spleen) ([4]; DSPC content less than 10 mol%)","uptake by spleen cell types (DiD fluorescence intensity) ([5]; X=3, 5, 10, 15, or 20, i.v. 0.2 mg/kg Fluc mRNA)","improvement of the uptake by B cells by increasing the DSPC content ([5]; X=3 to 20, i.v. 0.2 mg/kg Fluc mRNA)"
CCCCC/C=C\C/C=C\CCCCCCCCC(CCCCCCCC/C=C\C/C=C\CCCCC)OC(=O)CCCN(C)C [DLin-MC3-DMA],0.005,,,,,,,,,,,,,,,,
"CCCCCCCC/C=C\CCCCCCCC(=O)OCC(COC(=O)CCCCCCC/C=C\CCCCCCCC)(COC(=O)CCCCCCC/C=C\CCCCCCCC)NC(=O)CCN1CCCCC1 [TOT-5, 2-((oleoyloxy)methyl)-2-(3-(piperidin-1-yl)propanamido)propane-1,3-diyl dioleate]",,0.161,102.1,88.6,confirmed,high,not so high,very high,confirmed,very high,not so high,high,higher,predominantly in the spleen,predominantly in the liver,highly taken up by B cells and dendritic cells,about 10 times
CCCCC/C=C\C/C=C\CCCCCCCCOC1(OCCCCCCCC/C=C\C/C=C\CCCCC)CCN(C)CC1 [YSK05],0.06,,,,,,,,,,,,,,,,
